The values below come from patent US12012411B2, “Viral replication inhibitors” (Katholieke Universiteit Leuven, priority 2011, dated 2024).

One may read the EC50 as the concentration needed to bring the measured effect to its halfway point.

For series [1], the system named is DENV-3 strain H87 prototype. Description: Antiviral activity against DENV-3 in Vero-B cells (viral RNA load by RT-qPCR). The format is cell-based, Dengue virus. The settings on record: Dengue virus, DENV3, Vero B.
Series [2] concerns DENV-1 Djibouti strain D1/H/IMTSSA/98/606. Description: Antiviral activity against DENV-1 in Vero-B cells (viral RNA load by RT-qPCR). The conditions noted are these: Dengue virus, DENV1, Vero B. It counts as cell-based, Dengue virus. (Quantitative PCR measures a nucleic acid by following its amplification.)
The next series in a line: in vitro. The settings on record: African green monkey; for CC50 at 4 days: uninfected quiescent Vero-B cells.
Another series relates to DENV-2 NGC. Briefly: Antiviral activity against DENV-2 NGC in Vero-B cells (viral RNA load by RT-qPCR). The format is cell-based, Dengue virus. The settings on record: Dengue virus, DENV2, Vero B, DENV-2 in Vero-B cells; inhibition of viral RNA replication by 50% (Table 3).
Series [3] relates to DENV-4 strain Dak HD 34 460. Description: Antiviral activity against DENV-4 in Vero-B cells (viral RNA load by RT-qPCR). It counts as cell-based, Dengue virus. The conditions noted are these: Dengue virus, DENV4, Vero B.

`COc1cccc(NC(C(=O)c2c[nH]c3ccccc23)c2c(F)cc(C#N)cc2F)c1` (centres unmarked) [CPD-133]: the results for the EC50 (in series [1]; in series [2]; with DENV-2 NGC) were 4.17 µM, 2.25 µM and 0.04 µM, respectively. The CC50 at 4 days in the series “in vitro” worked out at 19 µM.

Regarding `COC(=O)c1ccc2[nH]cc(C(=O)C(Nc3cccc(OC)c3)c3ccccc3)c2c1` (centres unmarked) [CPD-142], the EC50 in series [1] amounted to 3.97 µM; in series [2] it was 1.71 µM; in the series on DENV-2 NGC it was 0.1 µM. The same molecule had a CC50 at 4 days in “in vitro” of 13 µM.

Take `COc1cccc(NC(C(=O)c2c[nH]c3cc(C)ccc23)c2ccccc2)c1` (centres unmarked) [CPD-122]: the EC50 in series [1] was 8.25 µM; in series [2], 3.64 µM; in the series on DENV-2 NGC it was 0.02 µM. For the same molecule, the CC50 at 4 days in “in vitro” was found to be 16 µM.

Consider `COc1cc(NC(C(=O)c2c[nH]c3ccccc23)c2ccccc2)nc(OC)n1` (centres unmarked) [CPD-087], for which the EC50 in series [2] worked out at 6.05 µM; with DENV-2 NGC it was 0.8 µM. This molecule returned a CC50 at 4 days in “in vitro” of over 128 µM.

For the molecule `COc1cc(NC(C(=O)c2c[nH]c3ccc(F)cc23)c2ccccc2)cc(OCCO)c1` (centres unmarked) [CPD-355], the figures for the EC50 (in series [1]; with DENV-2 NGC; in series [3]) were 0.3 µM, 0.03 µM and 6.17 µM, respectively. Further, the CC50 at 4 days in “in vitro” was 44 µM.

`COc1cccc(NC(C(=O)c2c[nH]c3c(F)cccc23)c2ccc(OC)nc2)c1` (centres unmarked) [CPD-155]: the figures for the EC50 (in series [2]; with DENV-2 NGC) were 2.94 µM and 0.08 µM, respectively. Moreover, the CC50 at 4 days in the series “in vitro” was 15 µM.

As for `COc1cccc(NC(C(=O)c2c[nH]c3ccccc23)c2ccccc2F)c1` (centres unmarked) [CPD-144], the values for the EC50 (in series [1]; in series [2]; with DENV-2 NGC) were 3.08 µM, 2.89 µM and 0.06 µM, respectively. This molecule also returned a CC50 at 4 days in the series “in vitro” of 20 µM.

Regarding `COc1cccc(NC(C(=O)c2nn(C)c3ccc(F)cc23)c2ccccc2)c1` (centres unmarked) [CPD-270], the EC50 is 1.87 µM in series [1], 1.57 µM in series [2] and 0.13 µM with DENV-2 NGC. The molecule also had a CC50 at 4 days in “in vitro” of over 128 µM.

Regarding `COc1cccc(NC(C(=O)c2c[nH]c3cc(F)ccc23)c2cnc(OC)cn2)c1` (centres unmarked) [CPD-297], the EC50 was 0.57 µM in series [1], 0.03 µM in the series on DENV-2 NGC and 6.68 µM in series [3]. The molecule further displayed a CC50 at 4 days in “in vitro” of 22 µM.

Regarding `COc1cc(CO)cc(NC(C(=O)c2c[nH]c3cc(F)ccc23)c2cccnc2)c1` (centres unmarked) [CPD-344], the EC50 is 0.79 µM in series [1], 0.09 µM in the series on DENV-2 NGC and 25.9 µM in series [3]. The molecule also yielded a CC50 at 4 days in the series “in vitro” of 94 µM.

Consider `COc1cc(NC(C(=O)c2cn(CCCO)c3ccccc23)c2ccccc2)cc(OC)c1` (centres unmarked) [CPD-210], for which the values for the EC50 (in series [2]; in the series with DENV-2 NGC) were 1.03 µM and 0.2 µM, respectively. This molecule also showed a CC50 in the series “in vitro” of 13 µM.

`COc1cccc(NC(C(=O)c2cn(S(C)(=O)=O)c3ccc(F)cc23)c2ccccc2)c1` (centres unmarked) [CPD-212]: the EC50 was 5.9 µM in series [1], 0.42 µM in the series on DENV-2 NGC and 2.64 µM in series [3]. Also, the CC50 at 4 days in the series “in vitro” was over 110 µM.

As for `COc1cccc(NC(C(=O)c2cn(S(=O)(=O)C3CCOC3)c3ccccc23)c2ccccc2)c1` (centres unmarked) [CPD-208], the EC50 in series [1] is 6.65 µM; in the series with DENV-2 NGC, 0.37 µM; in series [3], 6.95 µM. In addition, the CC50 at 4 days in “in vitro” was over 102 µM.

Regarding `COc1cccc(NC(C(=O)c2c[nH]c3ccccc23)c2cncnc2)c1` (centres unmarked) [CPD-029], the EC50 came out at 2.82 µM in series [2] and 0.84 µM in the series on DENV-2 NGC. In addition, the CC50 at 4 days in the series “in vitro” is 65 µM.

Regarding `COc1cccc(NC(C(=O)c2c[nH]c3ncc(F)cc23)c2ccccc2)c1` (centres unmarked) [CPD-227], the EC50 in series [1] worked out at 2.91 µM; in the series with DENV-2 NGC, 0.27 µM; in series [3], 7.45 µM. In “in vitro”, this molecule showed a CC50 at 4 days of over 124 µM.

With `COc1cccc(NC(C(=O)c2nn(CCO)c3ccccc23)c2ccccc2)c1` (centres unmarked) [CPD-303], the EC50 in series [2] was 3.26 µM; with DENV-2 NGC, 0.52 µM. For the same molecule, the CC50 in “in vitro” was found to be 71 µM.

Take `CCOc1ccc(NC(C(=O)c2c[nH]c3ccccc23)c2ccccc2)cc1OC` (centres unmarked) [CPD-173]: the EC50 in series [2] was 30.7 µM; in the series with DENV-2 NGC, 0.02 µM. Also, the CC50 at 4 days in the series “in vitro” was 69 µM.
